Data set [1] deals with T1, recombinant Nampt (Homo sapiens, UniProt P43490). The note with it: cited from earlier work.
The target in data set [2] is T1, recombinant Nampt. Put plainly: Recombinant Nampt inhibition assay. Type of data set: biochemical. The note with it: read-out: IC50, inhibition of recombinant Nampt activity; colorimetric assay.
A further data set deals with 184A1. Put plainly: MTT assay, 184A1 cells, 72 h. Type of data set: cell-based. The note with it: read-out: IC50 (nM) ± SD (n) 184A1, 184A1 noncancerous Nampt-dependent human breast epithelium cells, n=4. For orientation: Formazan colour is commonly taken as a measure of viable cells.
For data set [3] the following is noted: continuous intravenous infusion for 4 consecutive days, patients; cited from earlier work.

Read-outs that look alike come from different tables or passages of the source.

T1 sequence (P43490 whole entry): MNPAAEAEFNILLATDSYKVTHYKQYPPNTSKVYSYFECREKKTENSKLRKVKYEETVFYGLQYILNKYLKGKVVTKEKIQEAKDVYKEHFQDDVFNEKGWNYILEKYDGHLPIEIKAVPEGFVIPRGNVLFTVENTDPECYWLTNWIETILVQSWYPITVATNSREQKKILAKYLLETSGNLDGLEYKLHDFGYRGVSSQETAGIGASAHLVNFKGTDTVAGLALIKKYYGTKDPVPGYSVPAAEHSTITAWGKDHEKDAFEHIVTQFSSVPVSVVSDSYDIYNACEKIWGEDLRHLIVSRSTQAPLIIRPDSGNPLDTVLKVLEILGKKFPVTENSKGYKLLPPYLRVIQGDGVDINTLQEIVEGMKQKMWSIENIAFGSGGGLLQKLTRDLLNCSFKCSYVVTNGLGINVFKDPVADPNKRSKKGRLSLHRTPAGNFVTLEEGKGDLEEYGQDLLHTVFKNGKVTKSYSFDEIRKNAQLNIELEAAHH

On to “1-(4′-(trans-3″-(3‴-pyridyl)acrylamido)butyl)-1,7-dicarbadodecaborane [MC4-PPEA]”, for which, on recombinant Nampt [1] (read-out: IC50, inhibition of Nampt, previously reported), the IC50 (as a rule, the midpoint of a concentration-inhibition curve) is 4.2 nM. Further, at recombinant Nampt [1] (relative to FK866), the “fold higher Nampt inhibitory activity than FK866” value was ~ 100 fold.

For “1-(hydroxymethyl)-7-(4′-(trans-3″-(3′″-pyridyl)acrylamido)butyl)-1,7-dicarbadodecaborane [hm-MC4-PPEA]”, the IC50 at recombinant Nampt [2] came to 6.8 nM; with 184A1 it was 1.9 ± 0.4 nM.

On to `O=C(/C=C/c1cccnc1)NCCCCC1CCN(C(=O)c2ccccc2)CC1` [FK866], for which the dose-limiting toxicity entry in data set [3] is given as “thrombocytopenia”.
